Molecular target: T1, Caspase-1 (Homo sapiens, UniProt P29466)
T1 sequence (P29466 whole entry): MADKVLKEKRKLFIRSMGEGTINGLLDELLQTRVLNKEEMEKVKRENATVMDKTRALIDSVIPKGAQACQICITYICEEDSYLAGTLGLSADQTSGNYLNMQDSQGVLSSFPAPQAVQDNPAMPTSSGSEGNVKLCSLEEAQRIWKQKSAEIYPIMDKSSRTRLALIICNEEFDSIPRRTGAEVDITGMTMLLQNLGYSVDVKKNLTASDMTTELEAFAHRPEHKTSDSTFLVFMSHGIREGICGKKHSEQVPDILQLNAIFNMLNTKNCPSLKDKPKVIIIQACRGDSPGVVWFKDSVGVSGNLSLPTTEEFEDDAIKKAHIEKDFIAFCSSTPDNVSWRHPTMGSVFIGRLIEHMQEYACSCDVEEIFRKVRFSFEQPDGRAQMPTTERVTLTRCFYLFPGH
Test: Tested for inhibition of cysteine proteinase IL-1 beta converting enzyme (ICE)

Row | Compound | Ki [nM]
1 | CC(C)[C@H](NC(=O)CCc1ccccc1)C(=O)N[C@@H](C)C(=O)NC(CC(=O)O)C(=O)COC(=O)NCc1ccccc1 (stereo partly drawn) | 120
2 | CC(C)[C@H](NC(=O)CCc1ccccc1)C(=O)N[C@@H](C)C(=O)NC(CC(=O)O)C(=O)CN(CCc1ccccc1)Cc1ccccc1 (stereo partly drawn) | 60
3 | CC(C)[C@H](NC(=O)CCc1ccccc1)C(=O)N[C@@H](C)C(=O)NC(CC(=O)O)C(=O)CCCCc1ccccc1 (stereo partly drawn) | 100
4 | CC(C)[C@H](NC(=O)CCc1ccccc1)C(=O)N[C@@H](C)C(=O)NC(CC(=O)O)C(=O)CS(=O)(=O)CCCc1ccccc1 (stereo partly drawn) | 113

These reach a lower Ki. Values come first.

Row | Ki [nM] | Compound
5 | 27 | CC(C)[C@H](NC(=O)CCc1ccccc1)C(=O)N[C@@H](C)C(=O)NC(CC(=O)O)C(=O)C[S+]([O-])CCCc1ccccc1 (stereo partly drawn)
6 | 11 | CC(C)[C@H](NC(=O)CCc1ccccc1)C(=O)N[C@@H](C)C(=O)NC(CC(=O)O)C(=O)CSCCCc1ccccc1 (stereo partly drawn)
7 | 4.7 | CC(C)[C@H](NC(=O)CCc1ccccc1)C(=O)N[C@@H](C)C(=O)NC(CC(=O)O)C(=O)CNCCc1ccccc1 (stereo partly drawn)
8 | 2.7 | CC(C)[C@H](NC(=O)CCc1ccccc1)C(=O)N[C@@H](C)C(=O)NC(CC(=O)O)C(=O)COC(=O)CCc1ccccc1 (stereo partly drawn)
